Test results: ChEMBL document CHEMBL5154800, “Identification of N, C-capped di- and tripeptides as selective immunoproteasome inhibitors” (Eur J Med Chem, 2022)
pIC50: −log10 of the molar value.

System: not listed separately
Assay: Selectivity ratio of IC50 for inhibition of 20S proteasome beta 5c subunit (unknown origin) to IC50 for inhibition of 20S proteasome subunit beta-5i

Going from `Cc1ccc(CNC(=O)[C@H](Cc2ccccc2)NC(=O)[C@H](CCC(=O)N2CCCC2)NC(=O)[C@H](CNC(=O)CCl)NC(=O)CN2CCOCC2)cc1` to `COC(=O)C1CCN(C(=O)C[C@H](NC(=O)[C@H](CNC(=O)CCl)NC(=O)CN2CCOCC2)C(=O)N[C@@H](Cc2ccccc2)C(=O)NCc2ccc(C)cc2)CC1`, the Ratio IC50 rises from 10 to over 16.

Going from `Cc1ccc(CNC(=O)CNC(=O)[C@H](CCC(=O)NC(C)(C)C)NC(=O)[C@H](CNC(=O)CCl)NC(=O)CN2CCOCC2)cc1` to `Cc1ccc(CNC(=O)CNC(=O)[C@H](CCC(=O)NC(C)(C)C)NC(=O)CCNC(=O)CCl)cc1`, the Ratio IC50 falls from 41 to 6.

`Cc1ccc(CNC(=O)[C@H](Cc2ccccc2)NC(=O)[C@H](CC(=O)NCC2CCCO2)NC(=O)[C@H](CNC(=O)CCl)NC(=O)CN2CCOCC2)cc1` (stereo not given in full) and `CC(=O)N[C@@H](CNC(=O)CCl)C(=O)N[C@@H](CCC(=O)NC(C)(C)C)C(=O)N[C@@H](Cc1ccccc1)C(=O)NCc1ccc(C)cc1` are the same in Ratio IC50: 3 for the first, 3 for the second.

First: COC[C@H](NC(=O)[C@H](CCC(=O)NC(C)(C)C)NC(=O)CCNC(=O)CCl)C(=O)NCc1ccc(C)cc1
Second: CC[C@H](NC(=O)[C@H](CCC(=O)NC(C)(C)C)NC(=O)CCNC(=O)CCl)C(=O)NCc1ccc(C)cc1
The Ratio IC50 of the first is lower: 2 for the first, 3 for the second.

`CC(C)(C)NC(=O)CC[C@H](NC(=O)CCNC(=O)CCl)C(=O)N[C@@H](Cc1ccccc1)C(=O)NCc1ccc(OC(F)(F)F)cc1` and `CC(C)(C)NC(=O)CC[C@H](NC(=O)CCNC(=O)CCl)C(=O)N[C@@H](Cc1ccccc1)C(=O)NCc1cccc(C(F)(F)F)c1` cannot be ordered by Ratio IC50: over 14 for the first, 22 for the second.

First: Cn1ncc2cc(CNC(=O)[C@H](Cc3ccccc3)NC(=O)[C@H](CCC(=O)NC(C)(C)C)NC(=O)CCNC(=O)CCl)ccc21
Second: CC(C)c1ccc(CNC(=O)[C@H](Cc2ccccc2)NC(=O)[C@H](CCC(=O)NC(C)(C)C)NC(=O)CCNC(=O)CCl)cc1
The Ratio IC50 of the first is lower: 3 for the first, 12 for the second.

First: Cc1ccc(CNC(=O)[C@H](Cc2ccccc2F)NC(=O)[C@H](CCC(=O)NC(C)(C)C)NC(=O)CCNC(=O)CCl)cc1
Second: Cc1ncsc1-c1ccc(CNC(=O)[C@H](Cc2ccccc2)NC(=O)[C@H](CCC(=O)NC(C)(C)C)NC(=O)CCNC(=O)CCl)cc1
The Ratio IC50 of the first is lower: 4 for the first, over 11 for the second.

Going from `CC(C)(C)NC(=O)CC[C@H](NC(=O)CCNC(=O)CC#N)C(=O)N[C@@H](Cc1ccc2ccccc2c1)C(=O)NCc1cccc2ccccc12` to `CC(C)(C)NC(=O)CC[C@H](NC(=O)CCNC(=O)CCl)C(=O)N[C@@H](Cc1ccccc1)C(=O)NCc1ccc(N2CCOCC2)cc1`, the Ratio IC50 falls from 52 to 5.

Target: T1, Proteasome Macropain subunit MB1 (Homo sapiens, UniProt P28074)
T1 sequence (P28074 whole entry): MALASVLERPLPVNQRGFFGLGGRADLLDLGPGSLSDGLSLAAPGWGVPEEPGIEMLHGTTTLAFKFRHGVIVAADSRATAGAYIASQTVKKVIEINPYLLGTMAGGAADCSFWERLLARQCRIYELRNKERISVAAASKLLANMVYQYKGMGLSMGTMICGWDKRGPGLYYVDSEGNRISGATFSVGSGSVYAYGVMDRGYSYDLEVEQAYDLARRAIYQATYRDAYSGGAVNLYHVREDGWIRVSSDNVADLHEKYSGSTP
Assay: Inhibition of 20S proteasome subunit beta-5c (unknown origin) using Ac-WLA-AMC as substrate and measured after 30 mins

`Cc1ccc(CNC(=O)[C@H](Cc2ccccc2)NC(=O)[C@H](CCC(=O)N2CCCC2)NC(=O)[C@H](CNC(=O)CCl)NC(=O)CN2CCOCC2)cc1` and `COC(=O)C1CCN(C(=O)C[C@H](NC(=O)[C@H](CNC(=O)CCl)NC(=O)CN2CCOCC2)C(=O)N[C@@H](Cc2ccccc2)C(=O)NCc2ccc(C)cc2)CC1` cannot be ordered by pIC50: 5.45 for the first, under 6.19 for the second.

`Cc1ccc(CNC(=O)CNC(=O)[C@H](CCC(=O)NC(C)(C)C)NC(=O)[C@H](CNC(=O)CCl)NC(=O)CN2CCOCC2)cc1` and `Cc1ccc(CNC(=O)CNC(=O)[C@H](CCC(=O)NC(C)(C)C)NC(=O)CCNC(=O)CCl)cc1` are within 0.2 log units of each other in pIC50: 5.41 for the first, 5.42 for the second.

First: Cc1ccc(CNC(=O)[C@H](Cc2ccccc2)NC(=O)[C@H](CC(=O)NCC2CCCO2)NC(=O)[C@H](CNC(=O)CCl)NC(=O)CN2CCOCC2)cc1 (stereo not given in full)
Second: Cc1ncsc1-c1ccc(CNC(=O)[C@H](Cc2ccccc2)NC(=O)[C@H](CCC(=O)NC(C)(C)C)NC(=O)CCNC(=O)CCl)cc1
The pIC50 of the first is higher: 6.37 for the first, under 5.30 for the second.

First: COC[C@H](NC(=O)[C@H](CCC(=O)NC(C)(C)C)NC(=O)CCNC(=O)CCl)C(=O)NCc1ccc(C)cc1
Second: CC[C@H](NC(=O)[C@H](CCC(=O)NC(C)(C)C)NC(=O)CCNC(=O)CCl)C(=O)NCc1ccc(C)cc1
The pIC50 of the first is 0.41 log units higher: 7.10 for the first, 6.69 for the second. The first is the more potent here.

Compared with `CC(C)(C)NC(=O)CC[C@H](NC(=O)CCNC(=O)CCl)C(=O)N[C@@H](Cc1ccccc1)C(=O)NCc1ccc(OC(F)(F)F)cc1`, `Cc1ccc(CNC(=O)[C@H](Cc2ccccc2F)NC(=O)[C@H](CCC(=O)NC(C)(C)C)NC(=O)CCNC(=O)CCl)cc1` is higher in pIC50: under 5.30 for the first, 7.09 for the second. The second is the more potent here.

Target: T2, Proteasome subunit beta type-8 (Homo sapiens, UniProt P28062)
T2 sequence (P28062 whole entry): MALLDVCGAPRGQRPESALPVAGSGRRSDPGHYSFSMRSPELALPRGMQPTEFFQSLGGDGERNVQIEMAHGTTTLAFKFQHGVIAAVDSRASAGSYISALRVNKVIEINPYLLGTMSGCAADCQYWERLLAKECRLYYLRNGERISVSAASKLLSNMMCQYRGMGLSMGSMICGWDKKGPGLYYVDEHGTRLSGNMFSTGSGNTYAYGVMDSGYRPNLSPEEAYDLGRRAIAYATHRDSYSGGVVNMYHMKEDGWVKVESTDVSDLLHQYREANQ
Assay: Inhibition of 20S proteasome subunit beta-5i (unknown origin) using Ac-ANW-AMC as substrate and measured after 30 mins

Going from `Cc1ccc(CNC(=O)CNC(=O)[C@H](CCC(=O)NC(C)(C)C)NC(=O)[C@H](CNC(=O)CCl)NC(=O)CN2CCOCC2)cc1` to `Cc1ccc(CNC(=O)CNC(=O)[C@H](CCC(=O)NC(C)(C)C)NC(=O)CCNC(=O)CCl)cc1`, the pIC50 falls from 7.02 to 6.20 (0.82 log units). The first is the more potent here.

First: Cc1ccc(CNC(=O)[C@H](Cc2ccccc2)NC(=O)[C@H](CC(=O)NCC2CCCO2)NC(=O)[C@H](CNC(=O)CCl)NC(=O)CN2CCOCC2)cc1 (stereo not given in full)
Second: COC(=O)C1CCN(C(=O)C[C@H](NC(=O)[C@H](CNC(=O)CCl)NC(=O)CN2CCOCC2)C(=O)N[C@@H](Cc2ccccc2)C(=O)NCc2ccc(C)cc2)CC1
The pIC50 of the first is 0.67 log units higher: 6.86 for the first, 6.19 for the second.

`COC[C@H](NC(=O)[C@H](CCC(=O)NC(C)(C)C)NC(=O)CCNC(=O)CCl)C(=O)NCc1ccc(C)cc1` and `CC[C@H](NC(=O)[C@H](CCC(=O)NC(C)(C)C)NC(=O)CCNC(=O)CCl)C(=O)NCc1ccc(C)cc1` are within 0.2 log units of each other in pIC50: 7.36 for the first, 7.21 for the second.

Compared with `CC(C)(C)NC(=O)CC[C@H](NC(=O)CCNC(=O)CCl)C(=O)N[C@@H](Cc1ccccc1)C(=O)NCc1ccc(C#N)cc1C(F)(F)F`, `CC(C)(C)NC(=O)CC[C@H](NC(=O)CCNC(=O)CCl)C(=O)N[C@@H](Cc1ccccc1)C(=O)NCc1cccc(C(F)(F)F)c1` is higher in pIC50: under 5.30 for the first, 6.90 for the second.

Compound `CC(C)(C)NC(=O)CC[C@H](NC(=O)CCNC(=O)CCl)C(=O)N[C@@H](Cc1ccccc1)C(=O)NCc1ccc(S(C)(=O)=O)cc1` has a pIC50 of under 5.30.
